# According to PMC4535380, “Overproduction of pro-transglutaminase from Streptomyces hygroscopicus in Yarrowia lipolytica and its biochemical characterization” (BMC Biotechnology, 2015):
# Where two headings read alike, the source gives them in different places. Peptide text beside a SMILES is read from it. * marks the point of attachment. Cbz = O=C(OCc1ccccc1)*
# Key:
# Assay type in all cases: biochemical, Streptomyces hygroscopicus
# activated pro-TGase [1] = system: T1, activated pro-TGase; test: colorimetric hydroxamate assay at […] nm, Lineweaver-Burk; conditions: hydroxylamine co-substrate (assay b48), 50 mmol/L Tris-HCl pH 6.0; substrate 6-30 mmol/L (below Km); dispase-activated; read-out: N355Q
# T1 construct: pro-TGase behind XPR2 pre signal, secreted by Yarrowia lipolytica Po1h (pINA1297), N-glycosylated; no tag mentioned
# activated pro-TGase [2] = system: T1, activated pro-TGase; test: as above; conditions: hydroxylamine co-substrate (assay b48), 50 mmol/L Tris-HCl pH 6.0; substrate 6-30 mmol/L (below Km); dispase-activated; read-out: N160Q/N355Q
# activated pro-TGase [3] = system: T1, activated pro-TGase; test: as above; conditions: hydroxylamine co-substrate (assay b48), 50 mmol/L Tris-HCl pH 6.0; substrate 6-30 mmol/L (below Km); dispase-activated; read-out: N160Q
# [4] = system: T2, NC(=O)CC[C@H](NC(=O)OCc1ccccc1)C(=O)NCC(=O)O; test: purified protein; conditions: hydroxylamine co-substrate (assay b48), 50 mmol/L Tris-HCl pH 6.0, substrate 6-30 mmol/L (below Km), dispase-activated, 37.0 °C
# T2 construct: pro-TGase behind XPR2 pre signal, secreted by Yarrowia lipolytica Po1h (pINA1297), N-glycosylated; no tag mentioned
Km (activated pro-TGase [1]) [mM],Km (activated pro-TGase [2]) [mM],Km (activated pro-TGase [3]) [mM],Molecule,Km [4] [mM],kcat [4] [s⁻¹]
54.7 ± 2.1,48.4 ± 2.4,47 ± 1.5,NC(=O)CC[C@H](NC(=O)OCc1ccccc1)C(=O)NCC(=O)O [N-CBZ-Gln-Gly] (Cbz-Gln-Gly-OH),,
,,,activated pro-TGase (wild type) (Streptomyces hygroscopicus),59.5 ± 2.3,31.5 ± 1.7
